PubChem BioAssay (NCI)
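These data come from cells grown in 96-well plates and exposed to compound for 48 hours at five concentrations. TGI: concentration producing complete growth inhibition.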

Legend:
Assay in all cases: DTP human tumour cell line panel, 48 h
786-0 renal = tested on: 786-0 renal
A498 renal = tested on: A498 renal
A549 NSCLC = tested on: A549 NSCLC
ACHN renal = tested on: ACHN renal
BT-549 breast = tested on: BT-549 breast
CCRF-CEM leukemia = tested on: CCRF-CEM leukemia
COLO 205 colon = tested on: COLO 205 colon
DU-145 prostate = tested on: DU-145 prostate
EKVX NSCLC = tested on: EKVX NSCLC
HCC-2998 colon = tested on: HCC-2998 colon
HCT-116 colon = tested on: HCT-116 colon
HCT-15 colon = tested on: HCT-15 colon
HL-60(TB) leukemia = tested on: HL-60(TB) leukemia
HOP-62 NSCLC = tested on: HOP-62 NSCLC
HOP-92 NSCLC = tested on: HOP-92 NSCLC
HS 578T breast = tested on: HS 578T breast
HT29 colon = tested on: HT29 colon
IGROV1 ovarian = tested on: IGROV1 ovarian
K-562 leukemia = tested on: K-562 leukemia
KM12 colon = tested on: KM12 colon
M14 melanoma = tested on: M14 melanoma
MALME-3M melanoma = tested on: MALME-3M melanoma
MCF7 breast = tested on: MCF7 breast
MDA-MB-435 = tested on: MDA-MB-435
MDA-N = tested on: MDA-N
MOLT-4 leukemia = tested on: MOLT-4 leukemia
NCI-H226 lung = tested on: NCI-H226 lung
NCI-H23 lung = tested on: NCI-H23 lung
NCI-H460 lung = tested on: NCI-H460 lung
NCI-H522 lung = tested on: NCI-H522 lung
NCI/ADR-RES ovarian = tested on: NCI/ADR-RES ovarian
OVCAR-3 ovarian = tested on: OVCAR-3 ovarian
OVCAR-4 ovarian = tested on: OVCAR-4 ovarian
OVCAR-5 ovarian = tested on: OVCAR-5 ovarian
OVCAR-8 ovarian = tested on: OVCAR-8 ovarian
PC-3 prostate = tested on: PC-3 prostate
RPMI-8226 leukemia = tested on: RPMI-8226 leukemia
RXF 393 renal = tested on: RXF 393 renal
SF-268 CNS = tested on: SF-268 CNS
SF-295 CNS = tested on: SF-295 CNS
SF-539 CNS = tested on: SF-539 CNS
SK-MEL-2 melanoma = tested on: SK-MEL-2 melanoma
SK-MEL-28 melanoma = tested on: SK-MEL-28 melanoma
SK-MEL-5 melanoma = tested on: SK-MEL-5 melanoma
SK-OV-3 ovarian = tested on: SK-OV-3 ovarian
SN12C renal = tested on: SN12C renal
SNB-19 CNS = tested on: SNB-19 CNS
SNB-75 CNS = tested on: SNB-75 CNS
SW-620 colon = tested on: SW-620 colon
T-47D breast = tested on: T-47D breast
TK-10 renal = tested on: TK-10 renal
U251 CNS = tested on: U251 CNS
UACC-257 melanoma = tested on: UACC-257 melanoma
UACC-62 melanoma = tested on: UACC-62 melanoma
UO-31 renal = tested on: UO-31 renal
CAKI-1 renal = tested on: CAKI-1 renal
LOX IMVI melanoma = tested on: LOX IMVI melanoma
MDA-MB-231 breast = tested on: MDA-MB-231 breast

Measured: TGI

C[N+](C)(C)c1ncnc2c1ncn2C1CCCO1 (stereo not drawn)
not listed: CAKI-1 renal | LOX IMVI melanoma | MDA-MB-231 breast
> 100 µM: all other assays above

CCCn1c(=O)c(N2CCN(c3ccccc3)CC2)nc2sc3ccccc3c21
not listed: HCC-2998 colon | K-562 leukemia | NCI-H226 lung | RPMI-8226 leukemia | RXF 393 renal
> 100 µM: all other assays above
